Source: PMC6696115, “Characterization of Antimicrobial, Antioxidant, and Leishmanicidal Activities of Schiff Base Derivatives of 4-Aminoantipyrine” (Molecules, 2019)
≈ marks a conversion by molar mass, not a printed value.

Key:
[1] = test system: Escherichia coli ATCC 25922; test: antimicrobial serial microdilution, E. coli; type: cell-based; details: serial microdilution, 37 °C, 24 h
Protocol: (§1) The in vitro antifungal and antimicrobial activities were determined by testing the Schiff bases against the fungi Saccharomyces cerevisiae, Candida albicans, and Aspergillus niger and the bacteria Staphylococcus aureus, Enterococcus faecalis (Gram-positive), Pseudomonas aeruginosa, and Escherichia coli (Gram-negative).
(§2) The bacterial inoculum was prepared by emulsifying overnight colonies from an agar medium in broth (Mueller–Hinton broth). The suspensions were adjusted to a final organism density of 5 × 10^5 colony former units (cfu)/mL. […] The emulsifying of A. niger cultures was done by pouring 5 mL of saline and 0.1% of polysorbate 80 over the Petri dishes. Then, 100 µL of this suspension were diluted in 5 mL of saline and adjusted to an optical density of 0.1 at 530 nm. For S. cerevisiae, fresh exponential YPAD (yeast extract 1%, peptone 2%, adenine 0.004%, […]) cultures were adjusted to an optical density of 0.5 at 600 nm, and then diluted to the equivalent of 1 × 10^4 cells/mL (10^−3 dilution). Stock solutions of Schiff bases were prepared by dissolving them in DMSO at 10 mg/mL. […] The range of concentrations used was empirically selected for each organisms and the Schiff base. Drug sensitivities were assayed by serial dilutions in 96-well plates as previously described. A row with media and cells but without drug was the positive control. The blank was done by preparing a row with media and drugs, but without cells. Plates were fitted with a tight lid before incubation to prevent desiccation. […] The minimum bactericidal concentration (MBC) and fungicidal concentration (MFC) were determined by spreading 100 µL of culture from each well onto a plate (Mueller–Hinton agar for bacteria, Sabouraud dextrose agar for fungi except S. cerevisiae, and YPAD for S. cerevisiae).

RAW 264.7 cells = test: cell viability, MTT dye assay; type: cell-based, murine; details: RAW 264.7, exposure to 400 µM, 48 h
Protocol: The specificity and selectivity for the pathogen target is a key point for any potential drug.
The medium was renewed once a week. The viability was determined using MTT (thiazolyl blue tetrazolium bromide) dye assay as described previously for leishmanicidal activity assessment, with some variations. Here, 5 × 10^4 cells/well in a final volume of 100 µL were deposited into a 96-well plate in triplicate. Saponin (2 and 4 mg/mL) and untreated cells were used as the positive control and negative control, respectively. Schiff bases were dissolved in DMSO to obtain different serial concentrations (0.01–2000 µM). […] Cells were pelleted by centrifugation at 4400 rpm for 10 minutes and the media was removed. Next, 100 µL/well of DMSO were added and the absorbance at 570 nm was recorded. A reference wavelength of 630 nm was used for background subtraction.

[2] = test system: Candida albicans ATCC 10231; test: antimicrobial serial microdilution, C. albicans; type: cell-based; details: serial microdilution, 35 °C, 48 h
Protocol: as §1, §2

[3] = test system: S. cerevisiae wild type (BY4741); test: growth inhibition (OD600) of wild-type yeast, oxidative effect; type: cell-based, Saccharomyces cerevisiae
Protocol: Next, we wanted to evaluate the oxidative activity. To do this, drop test assays were performed with wild-type (W303 and BY4741 backgrounds) and sod1 (BY4741 background) yeast cells in the presence of 200 µg/mL of the analyzed Schiff bases (Figure 3). The SOD1 gene encodes superoxide dismutase 1, an enzyme with a major role in detoxifying ROS species generated during metabolism or because of environmental exposure. sod1 mutant cells are unprotected against oxidative agents, decreasing survival in their presence.
(A) Drop test of serial dilution of yeast cell cultures (wild type from genetic background W303, wild type from genetic background BY4741, and sod1 mutant from genetic background BY4741) exposed to Schiff bases at 200 µg/mL. A control without drug and with 2% DMSO are included.
as §2

[4] = test system: S. cerevisiae (backgrounds W303 and BY4741); test: antimicrobial serial microdilution, S. cerevisiae; type: cell-based, Saccharomyces cerevisiae; details: Saccharomyces cerevisiae; serial microdilution, 35 °C, 48 h; read-out: MIC S. cerevisiae
Protocol: as §1, §2

P. aeruginosa ATCC 27853 = test: antimicrobial serial microdilution, P. aeruginosa; type: cell-based; details: Pseudomonas aeruginosa, ATCC27853, 37 °C, 24 h
Protocol: as §1, §2

[5] = test system: Enterococcus faecalis ATCC 29212; test: antimicrobial serial microdilution, E. faecalis; type: cell-based; details: Enterococcus faecalis, ATCC29212; serial microdilution, 37 °C, 24 h
Protocol: as §1, §2

[6] = test system: promastigotes from L. mexicana (M379); test: leishmanicidal activity, MTT colorimetric assay; type: cell-based; details: Leishmania mexicana, 48 h exposure, 1% DMSO
Protocol: Leishmanicidal activities of all Schiff bases were evaluated by measuring promastigote mitochondrial activity using MTT colorimetric assay as described previously. […] The medium was renewed every four days. Parasite density was determined in a Neubauer chamber.
Into each well of a 96-well cell culture dish was dispensed 1 × 10^6 parasites. A stock solution of each of the Schiff Base was prepared in DMSO, and serial dilutions were added to the parasite suspension, keeping the solvent concentration at 1%. The final volume was 100 µL for each well and triplicate conditions were carried out. Pentamidine treatment (100 µg/mL) and untreated parasites were used as positive control and negative control, respectively. After exposure to the compounds for 48 h in culture medium, 10 µL of a solution of 5 mg/mL MTT dissolved in PBS was added to each well. […] Later, the plate was centrifuged at 4400 rpm for 10 min and the culture medium was then aspirated. Next, 100 µL of DMSO were added into each well to solubilize the formazan and the plate was shaken for 5 min. The colored formazan salt was measured by recording changes in absorbance at 570 nm using a microplate reader, a BioTek Synergy HT spectrophotometer. A reference wavelength of 630 nm was used to subtract background. Optical densities were analyzed as the quantity of formazan is directly proportional to the number of viable parasites. Data were analyzed with the statistical software GraphPad Prism.

**Q.** For `Cc1c(N=Cc2ccccc2O)c(=O)n(-c2ccccc2)n1C` [Compound 3b, 4-(2-Hydroxybenzylideneamino)-1,5-dimethyl-2-phenyl-1H-pyrazol-3(2H)-one], which IC50 ([1]; Escherichia coli, ATCC25922) is on record?
**A.** Its IC50 is 12.1 µg/mL (≈ 39.4 µM).

**Q.** What about the MIC ([1]; Escherichia coli, ATCC25922) of the same compound?
**A.** Its MIC is 49.8 ± 5 µg/mL (≈ 162 µM).

**Q.** And the “NIC E. coli” value ([1]; noninhibitory concentration)?
**A.** Its value is 2.8 ± 0.5 µg/mL.

**Q.** What about the “% Live Cells” value (RAW 264.7 cells) of the same compound?
**A.** Its value is 19.3 ± 0.2%.

**Q.** And the IC50 ([2]; Candida albicans, ATCC10231)?
**A.** The IC50 was 5.8 µg/mL (≈ 18.9 µM).

**Q.** And the MIC ([2]; Candida albicans, ATCC10231)?
**A.** Its MIC is 13.2 ± 1.6 µg/mL (≈ 42.9 µM).

**Q.** What about the “NIC C. albicans” value ([2]; noninhibitory concentration) of the same compound?
**A.** The value was 3.0 ± 2.2 µg/mL.

**Q.** What about the IC50 ([3]; Saccharomyces cerevisiae, unit inferred) of the same compound?
**A.** The IC50 was 192 µg/mL (≈ 625 µM).

**Q.** What about the “NIC Wt” value ([3]; unit not given) of the same compound?
**A.** The value was 178.0 ± 2.1.

**Q.** What about the “MIC Wt” value ([3]; unit not given, in µg/mL) of the same compound?
**A.** The value was 208.2 ± 4.0.

**Q.** And the MIC [4]?
**A.** Its MIC is > 200 µg/mL.

**Q.** And the MIC (P. aeruginosa ATCC 27853)?
**A.** Its MIC is > 200 µg/mL.

**Q.** What about the MIC [5] of the same compound?
**A.** Its MIC is > 200 µg/mL.

**Q.** What about the IC50 [6] of the same compound?
**A.** The IC50 was > 200 µM.
